In patent US20150005347A1, “NITROGEN-CONTAINING HETEROCYCLIC DERIVATIVE HAVING 2-IMINO GROUP AND PEST CONTROL AGENT INCLUDING THE SAME” (MEIJI SEIKA PHARMA CO., LTD., priority 2012, published 2015):

What was measured:
Type in all cases: in vivo
Plutella xylostella = Plutella xylostella control test, cabbage leaf disk foliar spray; settings: for mortality at 100 ppm / mortality at 500 ppm: Plutella xylostella, 72 h, second instar larvae, three days after release, read-out: mortality of larvae; for mortality at 100 ppm: foliar treatment at 100 ppm; for mortality at 500 ppm: foliar treatment at 500 ppm; for % Mortality, Test Example1 Plutella xylostella: foliar treatment
Procedure: Test Example 1 Plutella xylostella Control Test
(§1) A leaf disk having a diameter of 5.0 cm was cut out from a cabbage in pot culture, and a drug solution of the compound of the present invention at a predetermined concentration, which had been prepared so as to be a 50% acetone water (0.05% Tween20 available), was sprayed to the leaf disk. After an air drying process, second instar larvae were released thereto. Thereafter, the larvae were left to stand in a thermostatic chamber (16 hours of light period-8 hours of dark period) at 25° C. […] Test in duplicate.
mortality larvae(%)={number of dead larvae/(number of survived larvae+number of dead larvae)}×100

Aphis gossypii = experiment: Pest control test of Aphis gossypii, cucumber leaf disk foliar spray; settings: for mortality at 100 ppm / mortality at 500 ppm: Aphis gossypii, 72 h, first instar larvae, three days after release; for mortality at 100 ppm: foliar treatment at 100 ppm, read-out: mortality of larvae; for mortality at 500 ppm: foliar treatment at 500 ppm; for % Mortality, Test Example3 Aphis gossypii: foliar treatment
Procedure: Test Example 3 Pest Control Test of Aphis gossypii
as §1, with “2.0” for “5.0”, “cucumber” for “cabbage”, “first” for “second”
(§2) Mortality of larvae(%)={number of dead larvae/(number of survived larvae+number of dead larvae)}×100

Laodelphax striatella [1] = experiment: Pest control test of Laodelphax striatella, foliar spray on rice seedling; settings: Laodelphax striatellus, 144 h; foliar treatment at 1.25 ppm; second instar larvae; six days after release; read-out: mortality of larvae
Procedure: Test Example 6 Pest Control Test of Laodelphax striatella
as §1, with “A” for “A leaf disk having a diameter of 5.0 cm was cut out from a cabbage in pot culture, and a”, “was foliar” for “was”, “a rice seedling in pot culture.” for “the leaf disk.”
as §2

Musca domestica = experiment: Pest control test of Musca domestica adults, sucrose pledget; settings: 50 ppm in 40% sucrose liquid; four days after release
Procedure: Test Example 21 Pest Control Test of Musca domestica
A drug solution of the compound of the present invention, which had been adjusted to be 50 ppm with a 40% sucrose liquid, was adsorbed on a pledget, and the pledget was put into a vial. Two adults reared indoors were released thereto. Thereafter, the adults were left to stand indoors at room temperature of 25° C. […] When two adults were all agonized in death, it was judged to be effective.

Spodoptera litura = experiment: Pest control test against Spodoptera litura, cabbage leaf disk foliar spray
Procedure: Test Example 2 Pest Control Test Against Spodoptera litura
as §1, with “third” for “second”
as §2

[2] = system: Frankliniella occidentalis; experiment: Pest control test of Frankliniella occidentalis, kidney bean leaf disk foliar spray; settings: for % Mortality, Test Example7 Frankliniella occidentalis: foliar treatment
Text: Test Example 7 Pest Control Test of Frankliniella occidentalis
as §1, with “2.8” for “5.0”, “kidney bean” for “cabbage”, “first” for “second”
as §2

[3] = system: Sogatella furcifera exhibiting drug resistance to fipronil; experiment: Soil irrigation test, Sogatella furcifera exhibiting drug resistance to fipronil; settings: drug resistant populations
Procedure: Test Example 19 Pest Control Test of Sogatella furcifera
(§3) A rice seedling in pot culture was subjected to soil irrigation treatment with a drug solution of the compound of the present invention at a predetermined concentration, which had been prepared so as to be a 10% acetone water. […] Thereafter, the larvae were left to stand in a thermostatic chamber (16 hours of light period-8 hours of dark period) at 25° C. […] The test was performed in duplicate.
as §2
(§4) In addition, for the origin of test pests, bugs collected within the city of Odawara in 2010 as the drug resistant Sogatella furcifera, and bugs collected within the city of Chigasaki in 1970 and then successively reared indoors for a long time as the susceptible populations of Sogatella furcifera were used.

[4] = system: susceptible populations of Sogatella furcifera; experiment: Soil irrigation test, susceptible populations of Sogatella furcifera
Procedure: as §3, §2
Further, for comparison, the test against a populations of Sogatella furcifera which is highly susceptible to fipronil was performed by the same method as described above, and the results thereof are shown in Table 44.
as §4

[5] = system: Laodelphax striatella exhibiting drug resistance to fipronil; experiment: Soil irrigation test, Laodelphax striatella exhibiting drug resistance to fipronil; settings: drug resistant populations
Procedure: Test Example 20 Pest Control Test of Laodelphax striatella
as §3, §2
(§5) In addition, for the origin of test pests, bugs collected within the Kumamoto prefecture in 2006 as the drug resistant Laodelphax striatella, and bugs successively reared indoors for a long time as the susceptible populations of Laodelphax striatella were used.

[6] = system: susceptible populations of Laodelphax striatella; experiment: Soil irrigation test, susceptible populations of Laodelphax striatella
Procedure: as §3, §2
Further, for comparison, the test against a populations of Laodelphax striatella which is highly susceptible to fipronil was performed by the same method as described above, and the results thereof are shown in Table 45.
as §5

[7] = system: Trigonotylus caelestialium; experiment: Pest control test of Trigonotylus caelestialium, wheat seedling dipping
Text: Test Example 8 Pest Control Test of Trigonotylus caelestialium
Wheat seedling leaves and stems four days after the dissemination of seedlings were dipped for 30 seconds in a drug solution of the compound of the present invention at a predetermined concentration, which had been prepared so as to be a 50% acetone water (0.05% Tween20 available). After an air drying process, the wheat seedling leaves and stems were placed into a glass tube, and two second instar larvae of Trigonotylus caelestialium were released to the same glass tube. After the larvae were released, the tube was lidded to leave the larvae to stand in a thermostatic chamber at 25° C. In order to supply water to the wheat during the test, water was given to the wheat from the bottom of the glass tube.
as §2

Laodelphax striatella [8] = experiment: Pest control test of Laodelphax striatella, soil irrigation treatment of rice seedling; settings: soil irrigation treatment
Text: <Soil Irrigation Treatment Test>
Test Example 10 Pest Control Test of Laodelphax striatellua
(§6) A rice seedling in pot culture was subjected to soil irrigation treatment with a drug solution of the compound of the present invention at a predetermined concentration, which had been prepared so as to be a 10% acetone water. Three days after the treatment, ten second instar larvae of Laodelphax striatella were each released thereto. Thereafter, the larvae were left to stand in a thermostatic chamber (16 hours of light period-8 hours of dark period) at 25° C. […] The test was performed in duplicate.
as §2

Nilaparvata lugens = experiment: Pest control test of Nilaparvata lugens, soil irrigation treatment; settings: soil irrigation treatment
Procedure: Test Example 12 Pest Control Test of Nilaparvata lugens
as §6, with “Nilaparvata lugens” for “Laodelphax striatella”
as §2

[9] = system: Nilaparvata lugens exhibiting drug resistance to imidacloprid; settings: soil irrigation
Procedure: Test Example 18 Pest Control Test of Drug-Resistant Nilaparvata lugens
as §3, §2
(§7) Further, for the origin of test pests, bugs collected outdoors within the Kumamoto prefecture in 2007 as the drug resistant Nilaparvata lugens, and bugs collected within the Kagoshima prefecture and then successively reared indoors for a long time as the imidacloprid susceptible populations of Nilaparvata lugens were used.

[10] = system: imidacloprid susceptible populations of Nilaparvata lugens; experiment: Soil irrigation test, imidacloprid susceptible populations of Nilaparvata lugens; settings: Rate 0.05 mg/pot
Procedure: as §3, §2
Further, for comparison, the test against some population of Nilaparvata lugens which is highly susceptible to imidacloprid was performed by the same method as described above, and the results thereof are shown in Table 43.
as §7

`CN=C(/N=c1\ccccn1Cc1ccc(Cl)nc1)C(F)(F)F` [Compound 1-42, N-[1-((6-chloropyridin-3-yl)methyl)pyridin-2(1H)-ylidene]-2,2,2-trifluoro-N′-methylacetimidamide] gave a mortality at 100 ppm (Plutella xylostella) of at least 80%, a mortality at 500 ppm (Plutella xylostella) of at least 80% and a mortality at 100 ppm (Aphis gossypii) of at least 80%. For the same compound, the mortality at 500 ppm (Aphis gossypii) was at least 80%, the mortality at 1.25 ppm (Laodelphax striatella [1]) was at least 80% and the “activity against adults (effective when two adults were all agonized in death)” value (Musca domestica) was “all the adults are agonized in death”.
Work on `ON=C(/N=c1\ccccn1Cc1ccc(Cl)nc1)C(F)(F)F` [Compound 1-499, N-[1-((6-chloropyridin-3-yl)methyl)pyridin-2(1H)-ylidene]-2,2,2-trifluoro-N′-hydroxyacetimidamide] yielded a mortality at 100 ppm (Plutella xylostella) of at least 80%, a mortality at 500 ppm (Plutella xylostella) of at least 80% and a mortality at 500 ppm (Spodoptera litura; Spodoptera litura, 72 h, foliar treatment at 500 ppm, third instar larvae, three days after release, read-out: mortality of larvae) of at least 80%. For the same compound, the mortality at 100 ppm (Aphis gossypii) was at least 80%, the mortality at 500 ppm (Aphis gossypii) was at least 80% and the mortality at 1.25 ppm (Laodelphax striatella [1]) was at least 80%. For the same compound, the mortality at 500 ppm ([2]; Frankliniella occidentalis, 72 h, foliar treatment at 500 ppm, first instar larvae, three days after release, read-out: mortality of larvae) was at least 80%.
`N#Cc1nn(-c2c(Cl)cc(C(F)(F)F)cc2Cl)c(N)c1[S+]([O-])C(F)(F)F` (stereo not shown) [Fipronil] was tested, and the “Insecticidal effects against Sogatella furcifera (mortality of larvae %), Drug resistant populations six days after the treatment” value ([3]; Rate 0.01 mg/pot) was 40%, the “Insecticidal effects against Sogatella furcifera (mortality of larvae %), Drug resistant populations six days after the treatment” value ([3]; Rate 0.05 mg/pot) was 90% and the “Insecticidal effects against Sogatella furcifera (mortality of larvae %), Susceptible populations six days after the treatment” value ([4]; Rate 0.005 mg/pot) was 100%. For the same compound, the “Insecticidal effects against Sogatella furcifera (mortality of larvae %), Susceptible populations six days after the treatment” value ([4]; Rate 0.01 mg/pot) was 100%, the “Insecticidal effects against Sogatella furcifera (mortality of larvae %), Susceptible populations six days after the treatment” value ([4]; Rate 0.01 mg/pot as printed in the last line (below 0.005)) was 78% and the “Insecticidal effects against Laodelphax striatella (mortality of larvae %), Drug resistant populations six days after the treatment” value ([5]; Rate 0.02 mg/pot) was 76%. The “Insecticidal effects against Laodelphax striatella (mortality of larvae %), Drug resistant populations six days after the treatment” value ([5]; Rate 0.05 mg/pot) was 90%, the “Insecticidal effects against Laodelphax striatella (mortality of larvae %), Susceptible populations six days after the treatment” value ([6]; Rate 0.005 mg/pot) was 89% and the “Insecticidal effects against Laodelphax striatella (mortality of larvae %), Susceptible populations six days after the treatment” value ([6]; Rate 0.01 mg/pot) was 100%.
In the case of `FC(F)C(=S)N=c1ccccn1Cc1ccc(Cl)nc1` [Compound 1-21], the “% Mortality, Test Example1 Plutella xylostella” value (Plutella xylostella; 20 ppm) is reported as 10%, the “% Mortality, Test Example1 Plutella xylostella” value (Plutella xylostella; 100 ppm) is reported as 80% and the “% Mortality, Test Example2 Spodoptera litura” value (Spodoptera litura; foliar treatment, 100 ppm) is reported as 55%. The “% Mortality, Test Example3 Aphis gossypii” value (Aphis gossypii; 0.313 ppm) was 55%, the “% Mortality, Test Example3 Aphis gossypii” value (Aphis gossypii; 1.25 ppm) was 100% and the “% Mortality, Test Example3 Aphis gossypii” value (Aphis gossypii; 5 ppm) was 100%. For the same compound, the “% Mortality, Test Example3 Aphis gossypii” value (Aphis gossypii; 20 ppm) was 100%, the “% Mortality, Test Example3 Aphis gossypii” value (Aphis gossypii; 100 ppm) was 100% and the “% Mortality, Test Example7 Frankliniella occidentalis” value ([2]; 20 ppm) was 80%. The “% Mortality, Test Example7 Frankliniella occidentalis” value ([2]; 100 ppm) was 90%, the “% Mortality, Test Example8 Trigonotylus caelestialium” value ([7]; 2 ppm) was 67% and the “% Mortality, Test Example8 Trigonotylus caelestialium” value ([7]; 10 ppm) was 100%. The “% Mortality, Test Example8 Trigonotylus caelestialium” value ([7]; 50 ppm) was 100%, the “% Mortality, Test Example 10 Laodelphax striatella” value (Laodelphax striatella [8]; 0.01 mg/pot) was 20% and the “% Mortality, Test Example 10 Laodelphax striatella” value (Laodelphax striatella [8]; 0.05 mg/pot) was 100%. The “% Mortality, Test Example 12 Nilaparvata lugens” value (Nilaparvata lugens; 0.01 mg/pot) was 10%, the “% Mortality, Test Example 12 Nilaparvata lugens” value (Nilaparvata lugens; 0.05 mg/pot) was 85% and the “Insecticidal effects against Nilaparvata lugens (mortality of larvae %), Drug resistant populations three days after the treatment” value ([9]; Rate 0.05 mg/pot, drug resistant populations) was 50%. For the same compound, the “insecticidal effects against drug resistant Nilaparvata lugens” value ([9]; imidacloprid-resistant) was “high insecticidal effects”, the “mortality of larvae against drug resistant populations compared with susceptible populations of Nilaparvata lugens” value ([9]; imidacloprid-resistant vs susceptible) was “equivalent mortality of larvae” and the “Insecticidal effects against Nilaparvata lugens (mortality of larvae %), Susceptible populations three days after the treatment” value [10] was 67%. For the same compound, the “activity against adults (effective when two adults were all agonized in death)” value (Musca domestica) was “all the adults are agonized in death”.
`O=C(ON=C(/N=c1\ccccn1Cc1ccc(Cl)nc1)C(F)(F)F)c1ccccc1` [Compound 1-519, N-(benzoyloxy)-N-[1-((6-chloropyridin-3-yl)methyl)pyridin-2(1H)-ylidene]-2,2,2-trifluoroacetimidamide] showed a mortality at 100 ppm (Plutella xylostella) of at least 80%, a mortality at 500 ppm (Plutella xylostella) of at least 80% and a mortality at 100 ppm (Aphis gossypii) of at least 80%. It also gave a mortality at 500 ppm (Aphis gossypii) of at least 80% and a mortality at 1.25 ppm (Laodelphax striatella [1]) of at least 80%.
